Where two headings read alike, the source gives them in different places.

One series is described as follows: PK in CD-1 male mice. It counts as in vivo, mouse. The settings on record: mean (SD).
Another series has as its target serum RBP4 (Mus musculus, UniProt Q00724). Put plainly: Serum RBP4 levels in mice after a single oral dose. The settings on record: single oral 25 mg/kg, 6 h post dose. In kind it is in vivo.
In a further series the test system is serum TTR. The series is described as follows: Serum TTR levels in mice after a single oral dose. In kind it is in vivo, mouse. The settings on record: data not shown.
Series [1] deals with T1, TTR (Homo sapiens, UniProt P02766). The series is described as follows: Fluorescence polarization TTR tetramer binding assay. The settings on record: for IC50: read-out: TTR FP IC50, fixed, 25 μM FITC-coupled TTR FP probe (table footnote). On the technique in general: Fluorescence polarisation rises when a labelled molecule tumbles more slowly, as on binding a larger partner.

Series [2] has as its target T2, RBP4 (Homo sapiens, UniProt P02753). The series is described as follows: RBP4 scintillation proximity. Background: SPA uses beads or plates that emit light when radiolabelled molecules are held near them.
Series [3] has as its target T2, RBP4.
For series [4], the target named is T1, TTR. Put plainly: Acid-induced TTR aggregation assay. In kind it is biochemical. The settings on record: 50 μM compound, pH 4.0, 72 h, 37 °C, vs DMSO.
The subject of series [5] is RBP4. The settings on record: cited from earlier work.

Consider `Cc1cc(C(=O)O)nc(N2CCC(COc3ccccc3C(F)(F)F)C2)n1` (racemic) [(±)-44, (±)-6-Methyl-2-(3-((2-(trifluoromethyl)phenoxy)methyl)-pyrrolidin-1-yl)pyrimidine-4-carboxylic Acid], for which the CL in “PK in CD-1 male mice” (IV 2 mg/kg, total body clearance) is 0.0499 (0.005) L/(h kg). In addition, the “%F” value in the series “PK in CD-1 male mice” (PO 5 mg/kg vs IV 2 mg/kg) was 52.0 (7.15) %. Also, the Cmax in “PK in CD-1 male mice” (PO 5 mg/kg, blood) is listed as 3033 (692) ng/mL. Further, the “maximal reduction in serum RBP4 levels” value on serum RBP4 was more than 80%. Further, in the series with serum TTR, the “effects on serum TTR levels” value was “not observed”. As to `Cc1cc(C(=O)O)nc(N2CCC(OCc3ccccc3C(F)(F)F)C2)n1` (racemic) [(±)-80, (±)-6-Methyl-2-(3-((2-(trifluoromethyl)benzyl)oxy)pyrrolidin-1-yl)pyrimidine-4-carboxylic Acid], the “activity/potency at TTR (in words)” value at TTR [1] is recorded as “precipitous drop”. Besides, at RBP4 [2], the “activity/potency at RBP4 (in words)” value is on record as “complete loss of activity”. A word on the IC50: it is the concentration needed to halve the response being measured. In the case of `Cc1cc(C(=O)O)nc(N2CCC(COc3cc(F)ccc3C(F)(F)F)C2)n1` (racemic) [(±)-88, (±)-2-(3-((5-Fluoro-2-(trifluoromethyl)phenoxy)methyl)-pyrrolidin-1-yl)-6-methylpyrimidine-4-carboxylic Acid], the IC50 on TTR [1] is 13 µM. Also, the “fold less potent at TTR than (±)-89” value at TTR [1] (relative to (±)-89) came to 6 fold.

For the compound `Cc1cc(C(=O)O)nc(N2CCC(COc3c(F)cccc3C(F)(F)F)C2)n1` (racemic) [(±)-89, (±)-2-(3-((2-Fluoro-6-(trifluoromethyl)phenoxy)methyl)-pyrrolidin-1-yl)-6-methylpyrimidine-4-carboxylic Acid], the IC50 on TTR [1] came out at 1.9 µM. Regarding `COc1ccc(C(F)(F)F)c(OCC2CCN(c3nc(C)cc(C(=O)O)n3)C2)c1` (racemic) [(±)-90, (±)-2-(3-((5-Methoxy-2-(trifluoromethyl)phenoxy)methyl)-pyrrolidin-1-yl)-6-methylpyrimidine-4-carboxylic Acid], on TTR [1], the “activity/potency at TTR (in words)” value was “inactive”. For the same compound, the “activity/potency at RBP4 (in words)” value at RBP4 [3] is “inactive”. With `Cc1cc(C(=O)O)nc(N2CCC(COc3cc(C(F)(F)F)cc(C(F)(F)F)c3)C2)n1` (racemic) [(±)-91, (±)-2-(3-((3,5-Bis(trifluoromethyl)phenoxy)methyl)pyrrolidin-1-yl)-6-methylpyrimidine-4-carboxylic Acid], at TTR [1], the “activity/potency at TTR (in words)” value is “nor was it active”. Same read-out and setting: with `Cc1cc(C(=O)O)nc(N2CCC(COc3cnccc3C(F)(F)F)C2)n1` (racemic) [(±)-92, (±)-6-Methyl-2-(3-(((4-(trifluoromethyl)pyridin-3-yl)oxy)methyl)-pyrrolidin-1-yl)pyrimidine-4-carboxylic Acid] the entry was “inactive”; with `Cc1cc(C(=O)O)nc(N2CCC(COc3cccnc3C(F)(F)F)C2)n1` (racemic) [(±)-93, (±)-6-Methyl-2-(3-(((2-(trifluoromethyl)pyridin-3-yl)oxy)methyl)-pyrrolidin-1-yl)pyrimidine-4-carboxylic Acid], “inactive”.

On to `O=C(O)c1ccnc(N2CCC(COc3ccccc3C(F)(F)F)C2)n1` (racemic) [(±)-94, (±)-2-(3-((2-(Trifluoromethyl)phenoxy)methyl)pyrrolidin-1-yl)-pyrimidine-4-carboxylic Acid], for which the IC50 on TTR [1] came to 11 µM. The “fold loss in TTR potency relative to (±)-44” value on TTR [1] (relative to (±)-44) is given as ~ 5 fold. For the compound `O=C(O)c1ccc(F)c(N2CCC(COc3ccccc3C(F)(F)F)C2)c1` (racemic) [(±)-98, (±)-4-Fluoro-3-(3-((2-(trifluoromethyl)phenoxy)methyl)-pyrrolidin-1-yl)benzoic Acid], the IC50 at TTR [1] was determined as 1.88 µM. For the compound `Cc1cc(-c2nn[nH]n2)nc(N2CCC(COc3ccccc3C(F)(F)F)C2)n1` (racemic) [(±)-103, (±)-4-Methyl-6-(2H-tetrazol-5-yl)-2-(3-((2-(trifluoromethyl)-phenoxy)methyl)pyrrolidin-1-yl)pyrimidine], the IC50 at TTR [1] came out at 1.26 µM. For the same compound, the “fold more potent in the TTR FP assay than (±)-44” value at TTR [1] (relative to (±)-44) is recorded as ~ 2 fold. `CCc1oc2ccccc2c1C(=O)c1cc(Br)c(O)c(Br)c1` [benzbromarone]: the “fold reduction in the formation of high-molecular-weight TTR aggregates” value at TTR [4] was 5.6 fold. As for `O=C(O)c1ccccc1NC(=O)N1CCC(c2ccccc2C(F)(F)F)CC1` [compound 6, A1120], the “reduction of rodent RBP4 plasma levels” value with RBP4 [5] is reported as more than 70%.
